Assay results published in BindingDB's records for patent US20250289812 (Shanghai Institute Of Materia Medica, 2025).

Target: T1, Proto-oncogene tyrosine-protein kinase Src [84-145] (UniProt P12931)
T1 construct: 84-145
Experiment: Surface Plasmon Resonance Experiment
Procedure: Experimental method: Surface plasmon resonance test was carried out on BIACORE T200 instrument (GE Company). Fresh purified grade Src kinase SH3 domain protein (concentration 2 mg/ml) was diluted to 0.1 mg/ml with 10 mM CH3COONa (pH 4.2) and then SH3 protein was coupled to the CM5 chip by standard amino coupling methods. The compounds of the invention were diluted in a gradient using a buffer solution (20 mM Tris-HCl, PH 8.0, 100 mM NaCl) for 60 seconds and dissociated for 120 seconds at a flow rate of […], respectively. The changes in response values over time were recorded and analyzed by the BIA Evaluation Software (GE Healthcare) program to obtain the dissociation constants KD for the different compounds with SH3 protein.

| Kd | Structure (SMILES) |
| --- | --- |
| < 1 µM | COc1cnc2c(c1)c(C(N)=O)c(CNC(=N)N)n2C [US20250289812, Example SYY-C036] |
| < 1 µM | CCOC(=O)c1c(CNC(=N)N)n(C)c2cc(C3CC4CCC3C4)ccc12 (configuration not stated) [US20250289812, Example SYY-C069] |
